# From patent US20210228590A1, “TREATING INFLUENZA USING SUBSTITUTED POLYCYCLIC PYRIDONE DERIVATIVES AND PRODRUGS THEREOF” (priority 2018, published 2021)
# Columns and labels:
# [1] = system: influenza A virus A/PR/8/34; assay: Mouse model for delayed treatment: virus titers in lungs; assay type: in vivo, BALB/c mice; conditions: for virus in lungs: days 8 and 10 post infection, treatment from 72 hours, limit of detection 1.50 log10 TCID50/ml
# [2] = system: influenza A virus A/PR/8/34; assay: Mouse model for delayed treatment, lethal infection: survival and body weight; assay type: in vivo, BALB/c mice
# [3] = in vivo
# [4] = rat, in vivo, po
smiles,measurement,setting,value
"CCOC(=O)C1=C[C@@H](OC(CC)CC)[C@H](NC(C)=O)[C@@H](N)C1 [OSP, Oseltamivir phosphate, reference compound]",virus titers in lung versus vehicle-treated group,"[1]; OSP 5 mg/kg from 72 hours post infection, day 4 post infection",Significant reduction in virus titers
same,virus in lungs,[1],No virus was detected
same,survival time versus vehicle-treated group,[2]; OSP 5 mg/kg twice daily for 5 days from 24 or 48 hours post infection,survived for a significant longer period than the vehicle-treated group
same,protection level (survival),[2]; OSP 5 mg/kg twice daily for 5 days from 72 or 96 hours post infection,protection level was decreased
same,body weight loss versus control group,[2]; OSP from 24 and 48 hours post infection,Significant inhibitions in body weight loss
same,body weight loss versus vehicle-treated group,[2]; OSP from 72 and 96 hours post infection,body weight loss comparable to the vehicle-treated group
CC(=O)Oc1c2n(ccc1=O)N([C@@H]1c3ccccc3SCc3c1ccc(F)c3F)[C@@H]1COCCN1C2=O [II-4],BA(%),[3],20.0%
"COC(=O)OCOc1c2n(ccc1=O)N([C@@H]1c3ccccc3SCc3c1ccc(F)c3F)[C@@H]1COCCN1C2=O [II-6, baloxavir marboxil]",virus titers in lung versus vehicle-treated group,"[1]; BXM 1.5 and 15 mg/kg for 5 days from 72 hours post infection, days 4 and 6 post infection",significantly reduced compared with those in the vehicle-treated group
same,virus titer in lung versus OSP-treated group,"[1]; BXM 1.5 and 15 mg/kg from 72 hours post infection, days 4 and 6 post infection",significantly lower than that in the group treated with 5 mg/kg of OSP
same,virus in lungs,[1],No virus was detected
same,survival,"[2]; BXM 15 mg/kg orally twice daily for 5 days from 24, 48, or 72 hours post infection, observed to day 28",all mice treated with 1.5 and 15 mg/kg of BXM survived
same,survival time versus vehicle-treated group,"[2]; BXM from 24, 48, 72, and 96 hours post infection, P<0.01 or P<0.001",Significant differences in survival time
same,body weight change versus vehicle-treated group,"[2]; BXM from 24, 48, 72, or 96 hours post infection",significantly less reduction of body weight compared with the vehicle-treated group
same,body weight loss versus OSP-treated group,"[2]; BXM from 24, 48, 72 or 96 hour post infection, on indicated days",significantly less body weight loss than did the OSP-treated group
same,survival time versus OSP-treated group,"[2]; BXM given from 72 and 96 hours post infection, OSP 5 mg/kg",significantly prolonged compared with that in OSP-treated group
same,concentration of Compound II-6 in plasma samples,[4],a determination limit or less
"O=C1c2c(O)c(=O)ccn2N([C@@H]2c3ccccc3SCc3c2ccc(F)c3F)[C@@H]2COCCN12 [III-2, baloxavir acid]",BA(%),[3],4.2%
